Assay results taken from patent US20260199284A1, “SPECIFIC VASH COMPOUNDS (SVC) INHIBITORS FOR HEART DISEASES” (MT ACT, priority 2023, published 2026).
“Also recorded” adds a separate entry of the source.

Assays:
[1] = test system: human adult cardiomyocytes; test: Western blot of tubulin detyrosination and acetylation in human adult cardiomyocytes; assay type: cell-based
Procedure: FIG. 33: human adult cardiomyocytes are treated with vehicle or SVC-01 (inhibitor). Protein lysates are analysed by western blot to evaluate the level of tubulin detyrosination and acetylation.
Specificity of SVC-01 was assayed using both human VASH1 and VASH2 recombinant enzymes. […] Finally, to ensure that regulation of other genes involved in the detyrosination-tyrosination cycle is not affected, we analysed gene expression of all relevant and associated genes following treatment with SVC-02 in adult human cardiomyocytes. We found no alteration of VASH1, VASH2, MATCAP, TTL or SVBP gene expression between vehicle control and SVC-02 treated cells (FIG. 34).

ZSF1-Lean and Obese rats = test: Myocardial tubulin detyrosination after IV injection in ZSF1 rats (western blot, immunofluorescence); assay type: in vivo, rat; conditions: for detyrosinated tubulin in myocardial tissue (words): IV injections, 30 weeks old ZSF1 rats, western blot
Procedure: FIG. 23: immunofluorescence imaging to detect tubulin detyrosination on LV tissue and evaluate changes in the abundance of detyrosinated tubulin following SVC-02 treatment.
FIG. 24: Quantification of immunofluorescence imaging analysis performed on LV tissue to evaluate changes in microtubule density (SVC-02 as VASHi).
Formalin fixed paraffin embedded (FFPE) sections on glass slides were deparaffinized by sequential washes in xylenes, and decreasing concentrations of ethanol (100%, 95%, 75%, and 50%) followed by ddH2O. Slides were placed in 1× Reveal decloaking solution (Biocare Medical, Catalog #RV1000M) for antigen retrieval. Antigen retrieval was performed using a pressure cooker (Instant Pot Pro 10-in-1 pressure cooker, 8 Quart, Amazon.com) for 15 minutes at high pressure. After cooling, slides underwent a second round of antigen retrieval in 1× Antigen Unmasking Solution, Citric Acid Based (Vector Laboratories, Catalog #H-3300-250) in a pressure cooker for 15 minutes at high pressure. Next, the slides were washed in ddH2O, followed by PBS. The slides were permeabilized with PBS+0.25% Triton X-100, followed by incubation in fish serum blocking buffer (Thermo Scientific, Catalog #37527) containing 0.1% Tween 20 for 1 hour at RT.
Sections were co-stained with Mouse monoclonal (B-5-1-2) antibody to α-tubulin (Sigma-Aldrich, Catalog #T5168; 1:50) and Rabbit polyclonal detyrosinated α-tubulin antibody (ab48389 Lot #GR3425171; 1:50) in blocking buffer for 2 days at RT. Sections were washed in PBS containing 0.1% Tween 20 (PBST) and then incubated in goat anti-rabbit conjugated to Alexa Fluor 647 and goat anti-mouse conjugated to Alexa Fluor 568 secondary antibodies along with Alexa Fluor 488 conjugated WGA (Invitrogen Catalog #W11261; final concentration 25 μg/mL) in PBST for 2 days at RT. The sections were then stained with Hoechst 33342, Trihydrochloride, Trihydrate (Invitrogen Catalog #H3570, final concentration 10 μg/mL in PBS) and mounted in Prolong Diamond Antifade Mountant (Invitrogen Catalog #P36961).
Longitudinally oriented cardiomyocytes within the myocardium were identified. Four channel Z-stacks (4×500 nm slices) of myocardial regions were imaged using a 63× oil immersion objective (1.4 NA) on a Zeiss Airyscan 880 microscope with 18.3 nm×18.3 nm pixel size. The images were background subtracted and maximum intensity projections were generated in FIJI (NIH). Rectangular ROIs were blindly drawn within the cytosolic portion of individual cardiomyocytes, while excluding the nuclei and perinuclear regions, using the WGA and Hoechst channels. The α-tubulin and detyrosinated microtubule images were extracted from the ROIs. […] The microtubule density was calculated as the percent area coverage of the binary maps within each ROI. […]

[2] = test system: cardiomyocytes isolated from failing human hearts; test: Human myocyte contractility; assay type: cell-based
Procedure: Once excised, hearts were transported from the operating room to the laboratory in cold cardioplegia. The myocyte isolation was performed as previously described. An apical wedge was dissected from left ventricular free wall and a catheter was placed into the left anterior descending artery. The cannula was flushed with cold saline to evaluate perfusion of the wedge and tie any major vessels. The myocardium was then perfused with warm non-recirculating Krebs-Henseleit buffer (KHB) solution (12.5 mM glucose, 5.4 mM KCl, 1 mM lactic acid, 1.2 mM MgSO4, 130 mM NaCl, 1.2 mM NaH2PO4, 25 mM NaHCO3, 2 mM Na pyruvate, 20 mM BDM and 10 mM taurine, pH 7.4) for 10 minutes. Then, the myocardium was perfused with recirculated KHB and type II collagenase (294 units/mL) (Worthington Biochemical Corp., Lakewood, NJ, USA) for 5 minutes before calcium was slowly re-introduced to reach a final concentration of 1 mM. The collagenase and calcium supplemented KHB were recirculated for 25-30 minutes depending on the how the myocardium digested. The tissue was then removed from the cannula, rinsed in KHB with 1% bovine serum albumin (BSA) to stop the digestion, and then minced. The cell suspension was then filtered using 280-uM nylon mesh, centrifuged (25×g for 2 min), and resuspended in normal Tyrode's solution. Cells were treated with VASH inhibitor (VASHi) (1 mM) or vehicle (DMSO) before being placed in an incubator for 4 hours.
Contractility was assessed as previously described. After the 4-hour incubation with either VASHi or vehicle was complete, cardiomyocytes were transferred to 35 mm glass-bottom dishes. Contractility data was collected at 37 C. Cardiomyocytes were paced at 0.5 Hz using a myopacer (IonOptix MYP100) with custom fabricated carbon electrodes lowered into the glass bottom dish. Cells were paced for 10-15 seconds to reach steady state contractions and then data was recorded using high-speed video imaging with a Nikon PU-2000 inverted microscope with a 40× objective (IonWizard, IonOptix). A minimum of 5 contractions were recorded for Each myocyte and analyzed offline.
Cardiomyocytes were isolated from failing (N=4) and non-failing (N=3) human hearts, then treated with vehicle or VASHi (SVC-02) to evaluate bioactivity of the small molecule compound in primary human cardiomyocytes. Patient demographics are detailed in a table (FIG. 26). Compiled traces from all non-failing and failing patients are shown (FIG. 27).

Row | SMILES | level of tubulin acetylation [1] | level of tubulin detyrosination [1] | detyrosinated tubulin in myocardial tissue (words) (ZSF1-Lean and Obese rats) | detyrosinated tubulin in myocardial tissue (words) (ZSF1-Lean and Obese rats; listed as SVC-02) | reduction of tubulin detyrosination in heart tissue (ZSF1-Lean and Obese rats; lean and obese animals, 8 hours following intravenous injection) | density of detyrosinated-microtubules in LV tissue (ZSF1-Lean and Obese rats; obese animals, immunofluorescence, vs vehicle) | contraction velocity [2] | fractional shortening [2] | resting sarcomere length [2] | time to 50% relaxation / relaxation ([2]; 4 hours incubation)
1 | O=C(O)CCC[C@H](NC(=O)[C@H]1O[C@@H]1C(=O)C[C@@H](Cc1ccc(OCc2ccccc2)cc1)C(=O)O)C(=O)NCCc1ccccc1 [SVC_01] | did not affect the level of tubulin acetylation; also recorded: remained unchanged | significantly reduces the level of tubulin detyrosination; also recorded: significant reduction of tubulin detyrosination | – | – | – | – | – | – | – | –
2 | CCOC(=O)[C@H](Cc1ccc(OCC)cc1)NC(=O)[C@H]1O[C@@H]1C(=O)N[C@@H](Cc1ccc(OCC)cc1)C(=O)OCC [SVC_02] | – | – | efficient reduction in detyrosinated tubulin | significantly reduced detyrosinated tubulin abundance | about 60% | significant reduction in the density of detyrosinated-microtubules | did not significantly change | did not significantly change | did not significantly change | improved; also recorded: shortened the time to 50% relaxation
